# Values of other authors in patent publication US8735408B2, “Solid forms of 3-(4-(aminomethyl)-1-(5-methyl-7H-pyrrolo[2,3-d]pyrimidin-4-yl)piperidine-4-carboxamido)phenyl dimethylcarbamate” (Lexicon Pharmaceuticals, Inc., priority 2010, dated 2014).
# Settings: models of ophthalmic disease; see US-2009-0264450-A1
structure (smiles),measurement,value
"Cc1c[nH]c2ncnc(N3CCC(CN)(C(=O)Nc4cccc(OC(=O)N(C)C)c4)CC3)c12 [3-(4-(aminomethyl)-1-(5-methyl-7H-pyrrolo[2,3-d]pyrimidin-4-yl)piperidine-4-carboxamido)phenyl dimethylcarbamate]",effect on intraocular pressure,decrease intraocular pressure
